Assay: gradient 5% acetonitrile 3 min, to 50% in 2 min, to 85% in 15 min, held 3 min, 100 µL/min
Details: column: Zorbax Extend-C18 2.1 x 50 mm; eluents: water / acetonitrile, 0.1% formic acid
Outline: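 Retention times come from adduct peaks that were picked computationally and then checked by hand. The standards, pure and pooled in mixtures of ~100 molecules, were run on a Zorbax Extend-C18 column (2.1 × 50 mm, 1.8 μm) at 100 μL/min with water and acetonitrile, each with 0.1% formic acid. Detection was by quadrupole time-of-flight mass spectrometry in positive and negative ionization mode, with a dead volume of 40 μL and a dwell volume of 900 μL.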

CCOCCCNC(=O)CN1C(=O)C2CCCCN2c2ccc(S(=O)(=O)N3CCCC3)cc21 (centres undefined)
RP-LC retention time: 819 s

COc1cccc(CNC(=O)c2cc3cn(C4CC4)cc3s2)c1OC
RP-LC retention time: 507 s

Cc1cnc(C2CN(C(=O)c3cccn3C)C2)n1CC1CC1
RP-LC retention time: 608 s

Cc1ccc(CNc2c(-c3ccc(N(C)C)cc3)nc3ncccn23)cc1
RP-LC retention time: 889 s

COc1ccc(Cl)cc1NC(=O)c1cn(C)c2ncccc12
RP-LC retention time: 955 s

CC1CCCN(c2nn(CC(=O)Nc3ccc(F)cc3)c(=O)c3ccccc23)C1 (centres undefined)
RP-LC retention time: 1090 s

CCc1nc(OCC(=O)Nc2cc(OC)cc(OC)c2)c2ccccc2n1
RP-LC retention time: 720 s

Cn1nnc2ccc(-c3noc(-c4ccc(Cl)cc4)n3)cc21
RP-LC retention time: 1090 s

CCC(Sc1nnc2n1CCN2c1ccc(OC)cc1)C(=O)OC (centres undefined)
RP-LC retention time: 735 s

CCOc1ccccc1-n1ccn(Cc2nc(-c3ccc(C(C)(C)C)cc3)no2)c(=O)c1=O
RP-LC retention time: 699 s

CCC1CCCCN1CCCNC(=O)C1=C(C)C(=O)OC12CCN(C(C)=O)CC2 (centres undefined)
RP-LC retention time: 565 s

COc1cc(OC)cc(N2C(=O)C3N=NN(Cc4nc(-c5ccc(OC(C)C)cc5)no4)C3C2=O)c1 (centres undefined)
RP-LC retention time: 1090 s

CSc1nc(N2CCCC2)c2cnn(CCNC(=O)CSc3nnnn3C)c2n1
RP-LC retention time: 651 s

CCOc1ccc(CCNC(=O)c2c(C)oc3nc(C)nc(N4CCCC4)c23)cc1
RP-LC retention time: 697 s

COc1cc(-c2nc(Cn3ccn4nc(-c5ccccc5)cc4c3=O)c(C)o2)cc(OC)c1OC
RP-LC retention time: 990 s

CCCNc1nc(-c2ccc(OC)cc2)nc2ccccc12
RP-LC retention time: 734 s

O=C(NC1CCCCC1)C1CCCN(C(=O)c2cc(-c3ccccn3)n[nH]2)C1 (centres undefined)
RP-LC retention time: 659 s

O=C(Nc1ccc2c(c1)OCO2)C1CCCN(S(=O)(=O)Cc2ccc(Cl)cc2)C1 (centres undefined)
RP-LC retention time: 964 s

COc1ccc(C(=O)NCc2cccnc2OC)c(OC)n1
RP-LC retention time: 840 s

COC(=O)c1cnc(N2CCN(c3ccc(F)cc3)CC2)c2ccccc12
RP-LC retention time: 1190 s

CC1CCN(c2ccc(-c3noc(CN4CCN(c5ccccc5)CC4)n3)cn2)CC1
RP-LC retention time: 787 s

COc1cccc(-c2nc3cnccn3c2NCCC(=O)Nc2ccc3c(c2)OCCO3)c1
RP-LC retention time: 672 s

O=c1c2cc(-c3ccc(F)cc3)nn2ccn1Cc1ccccc1Cl
RP-LC retention time: 1120 s

COc1cccc(CN2C[C@@H]3C(=O)N(CCN4CCc5ccccc5C4)C(=O)[C@@H]3C2)c1
RP-LC retention time: 590 s

O=S(=O)(Cc1noc(-c2ccc(F)cc2F)n1)c1ccc(Cl)cc1
RP-LC retention time: 1160 s

Cc1ccc(NC(=O)N2CCCC2c2nc(-c3ccccc3C)no2)cc1 (centres undefined)
RP-LC retention time: 598 s

CCOc1ccc(NC(=O)C2CCN(S(=O)(=O)c3cn(C(C)C)cn3)CC2)cc1
RP-LC retention time: 775 s

Cc1ccnc(N2CCC(C(=O)NC(C)c3ccc4c(c3)OCCO4)CC2)n1 (centres undefined)
RP-LC retention time: 672 s

CCOc1ccc(-n2ccn3c(CCCC(=O)NC4CCCCCC4)nnc3c2=O)cc1
RP-LC retention time: 783 s

CCc1ccc(S(=O)(=O)NCc2c(-c3ccccc3)nc3sc(C)nn23)cc1
RP-LC retention time: 943 s

Cc1ccc(Nc2nc(C)cc(N3CCN(C(=O)Nc4cccc(C)c4)CC3)n2)cc1
RP-LC retention time: 717 s

Cc1cccc(CNC(=O)C2CCCN(c3ccc4cc(S(=O)(=O)N5CCCC5)ccc4n3)C2)c1 (centres undefined)
RP-LC retention time: 774 s

CCCNC(=O)c1cc(=O)[nH]c2ccccc12
RP-LC retention time: 620 s

Cc1nc(-c2ccncc2)nc2c1CCC(=O)N2Cc1ccco1
RP-LC retention time: 666 s

CCC(C)NC(=O)c1ccn[nH]1 (centres undefined)
RP-LC retention time: 593 s

CC(=O)N1CCCCCCNC(=O)[C@@H]2CCC[C@@H]21
RP-LC retention time: 624 s

Cc1cc(NC(=O)Cn2cnc3c(oc4ccccc43)c2=O)no1
RP-LC retention time: 668 s

O=C(NCCC1=CCCCC1)C(=O)NCC1(CO)CC1
RP-LC retention time: 713 s

Cc1cc(C)cc(Oc2nccn3c(=O)n(CC(=O)NC4CCCCC4)nc23)c1
RP-LC retention time: 905 s

CCCn1cc(C2=CCN(S(=O)(=O)Cc3cccc(Cl)c3)CC2)c2cccnc21
RP-LC retention time: 1110 s

CCN1CCN(CCNC(=O)C2Cn3cccc3C(=O)N2CC(C)C)CC1 (centres undefined)
RP-LC retention time: 562 s

C=C(C)C(=O)Nc1ccc(NC(C)C)cc1
RP-LC retention time: 629 s

O=C(c1ccc(Cl)cc1)N1CCc2sc(C(=O)N3CCCC3)cc2C1
RP-LC retention time: 792 s

CC(=O)c1ccc(NC(=O)Cn2c(=O)n(-c3ccc(F)cc3)c(=O)c3c2cc(C)n3C)cc1
RP-LC retention time: 763 s

Cn1nccc1-c1cccc(-c2noc(/C=C/c3ccccc3)n2)c1
RP-LC retention time: 1160 s

O=C(Cn1ncn2nc(-c3cccs3)cc2c1=O)N1CCN(c2ccccn2)CC1
RP-LC retention time: 622 s

CCCN1C(=O)C(NC(=O)c2cccc(OC)c2)(C(F)(F)F)C(C(=O)OC)=C1C (centres undefined)
RP-LC retention time: 946 s

O=C(Oc1ccc(NC2=NS(=O)(=O)c3ccccc32)cc1)c1ccccc1
RP-LC retention time: 935 s

CCCN1C(=O)c2cc(C(=O)N3CCN(C4CCCCC4)CC3)nn2CC1(C)C(=O)NC1CCCC1 (centres undefined)
RP-LC retention time: 660 s

Cn1cnc(S(=O)(=O)N2CCC(C(=O)Nc3ccc4c(c3)OCCO4)CC2)c1
RP-LC retention time: 663 s

O=C(c1ccco1)N1CCN(c2ccc3cc(S(=O)(=O)N4CCCC4)ccc3n2)CC1
RP-LC retention time: 704 s

O=C(Cc1ccccc1Cl)Nc1nnc(C2CC(=O)N(c3ccc(F)cc3)C2)o1 (centres undefined)
RP-LC retention time: 705 s

Cc1cnc(C(=O)N[C@@H]2CCC[C@@H]2C(=O)NC2CCCC2)cn1
RP-LC retention time: 638 s

CC1CCCN(CCCNC(=O)CCCn2c3ccccc3c3cnn(C)c(=O)c32)C1 (centres undefined)
RP-LC retention time: 626 s

O=C(c1ccc(-n2cnnn2)cc1)N1CCCc2ccccc21
RP-LC retention time: 734 s

C=CCN(Cc1nc(-c2ccc(C)cc2)no1)C(=O)Nc1ccc(C)cc1
RP-LC retention time: 1100 s

Cc1cccc(OCCc2noc(C3CCCN3)n2)c1 (centres undefined)
RP-LC retention time: 645 s

CCN(CC)c1nc(-c2cccc(C)c2)nnc1C
RP-LC retention time: 719 s

CC(=O)Nc1c(C)nn(-c2ccccc2)c1N1CCC(C(=O)N2CCN(C3CCCCC3)CC2)CC1
RP-LC retention time: 597 s

CCc1nccn1Cc1nc(-c2ccc(C)cc2)no1
RP-LC retention time: 646 s

CCOC(=O)C1=C(CN2CCN(Cc3ccc4c(c3)OCO4)CC2)NC(=O)NC1c1ccc(F)cc1 (centres undefined)
RP-LC retention time: 675 s

Cc1cc(C)c(S(=O)(=O)N2CC(c3nc(-c4ccncc4)no3)C2)cc1C
RP-LC retention time: 974 s

CCc1cc(-c2csc(S(=O)(=O)NCCCN3CCC(C)CC3)c2)on1
RP-LC retention time: 677 s

CC(=O)c1ccc(NS(=O)(=O)c2ccc(-c3c(C)noc3C)cc2)cc1
RP-LC retention time: 813 s

Cc1ccn2c(NC(=O)c3ccc(Br)cc3)c(-c3ccccc3)nc2c1
RP-LC retention time: 709 s

CCc1nn2c(=O)cc(CSc3nnc(-c4cccc(C)c4)o3)nc2s1
RP-LC retention time: 800 s

Cc1oc2ncn(CC(=O)N3CCCc4ccccc43)c(=O)c2c1C
RP-LC retention time: 838 s

Cn1nccc1-c1cccc(-c2noc(-c3ccc(F)cc3Cl)n2)c1
RP-LC retention time: 1190 s

CCc1cccc(NS(=O)(=O)c2cc3n(c2)CCN(CC(C)C)C3=O)c1
RP-LC retention time: 852 s

CCOC(=O)c1noc2ncnc(Nc3cc(C)cc(C)c3)c12
RP-LC retention time: 1060 s

COc1ccc(S(=O)(=O)Nc2cc(-c3cn4ccc(C)cc4n3)ccc2C)cc1
RP-LC retention time: 662 s

CCCNC(=O)c1ccc(-c2ccnc(N3CCCCC3)n2)cc1
RP-LC retention time: 905 s

O=c1ccc(-c2ccccc2Cl)nn1Cc1nc(-c2ccc3c(c2)OCO3)no1
RP-LC retention time: 996 s

CCn1ccc(C(=O)N2CCCC2c2nc(-c3ccc(F)cc3F)no2)n1 (centres undefined)
RP-LC retention time: 827 s

COc1ccc(N2C(=O)CC(N3CCC(C)CC3)C2=O)cc1 (centres undefined)
RP-LC retention time: 579 s

Cc1ccc(NC(=O)N2CCC[C@@H]2C(=O)NCc2csc(-c3ccccc3)n2)cc1C
RP-LC retention time: 861 s

Cc1ccc(-c2csc(NC(=O)c3coc4ccccc4c3=O)n2)o1
RP-LC retention time: 1070 s

Cc1ccc(-n2ccc(=O)c(-c3nc(-c4ccc5c(c4)OCO5)no3)n2)cc1
RP-LC retention time: 893 s

CC(NC(=O)c1ccco1)c1nc2ccccc2n1CC(=O)N(c1ccccc1)C(C)C (centres undefined)
RP-LC retention time: 725 s

CCOC(=O)C(=O)NCc1ccccc1Cl
RP-LC retention time: 735 s

CC(C)NC(=O)N(C1CC1)C1CCOC2(CCN(C(=O)Cc3ccsc3)CC2)C1 (centres undefined)
RP-LC retention time: 770 s

CCOC(=O)c1nnc2c(-c3ccc(Br)cc3)c(C)nn2c1C
RP-LC retention time: 1100 s

COc1ccc(CCNC(=O)CN2C(=O)CSc3cccn3-c3ccccc32)cc1OC
RP-LC retention time: 831 s

COc1ccc(NC(=O)Cc2c(C)nn(-c3nc(-c4ccccc4)cs3)c2C)cc1
RP-LC retention time: 1110 s

O=C(NC1CCN(c2cc(-c3ccccc3)[nH]n2)C1)c1cccc(Cl)c1 (centres undefined)
RP-LC retention time: 763 s

O=C(Cn1nc(C2CC2)cc1C(=O)N1CCCC1)N1CCN(c2ccc(Cl)cc2)CC1
RP-LC retention time: 845 s

CCCn1c(=O)c2cc(C(=O)Nc3cccc(C)c3)nn2c2ccccc21
RP-LC retention time: 1080 s

O=C(Cn1cnc2nc(N3CCC(C(=O)NC4CC4)CC3)sc2c1=O)NCC1CCCO1 (centres undefined)
RP-LC retention time: 589 s

COc1ccc(C2Cn3nnc(C(=O)N4CCN(C(=O)c5cc(F)ccc5F)CC4)c3CO2)cc1 (centres undefined)
RP-LC retention time: 872 s
